Test results published in ChEMBL document CHEMBL1135007, “Synthesis and pharmacological evaluation of a new class of peroxisome proliferator-activated receptor modulators” (Bioorg Med Chem Lett, 2002).

How the values were obtained:
[1] = molecular target: T1, Peroxisome proliferator-activated receptor alpha (Homo sapiens, UniProt Q07869); test: Transactivation potency was measured by luciferase activity in Caco- 2/TC7 cells transiently co-transfected for the fusion-protein Gal4-PPAR alpha; format: functional, cell-based
T1 sequence (Q07869 whole entry): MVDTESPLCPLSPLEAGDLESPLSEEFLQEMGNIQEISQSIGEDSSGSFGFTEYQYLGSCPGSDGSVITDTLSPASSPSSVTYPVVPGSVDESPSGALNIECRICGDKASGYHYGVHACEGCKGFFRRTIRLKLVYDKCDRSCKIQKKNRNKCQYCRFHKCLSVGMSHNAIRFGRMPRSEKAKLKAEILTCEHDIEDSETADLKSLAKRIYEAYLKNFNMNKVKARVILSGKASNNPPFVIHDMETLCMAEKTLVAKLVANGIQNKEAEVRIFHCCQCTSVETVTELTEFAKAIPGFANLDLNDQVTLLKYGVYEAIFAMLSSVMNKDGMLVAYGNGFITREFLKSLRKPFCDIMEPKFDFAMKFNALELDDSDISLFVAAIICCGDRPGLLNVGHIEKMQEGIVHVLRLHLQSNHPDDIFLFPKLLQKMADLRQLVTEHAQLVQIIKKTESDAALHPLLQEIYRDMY

[2] = molecular target: T2, Peroxisome proliferator-activated receptor gamma (Homo sapiens, UniProt P37231); test: Ligand binding affinity was determined by displacement of a tritiated tracer by the unlabeled compound to a GST-PPAR fusion protein for Peroxisome proliferator activated receptor gamma containing residues
T2 sequence (P37231 whole entry): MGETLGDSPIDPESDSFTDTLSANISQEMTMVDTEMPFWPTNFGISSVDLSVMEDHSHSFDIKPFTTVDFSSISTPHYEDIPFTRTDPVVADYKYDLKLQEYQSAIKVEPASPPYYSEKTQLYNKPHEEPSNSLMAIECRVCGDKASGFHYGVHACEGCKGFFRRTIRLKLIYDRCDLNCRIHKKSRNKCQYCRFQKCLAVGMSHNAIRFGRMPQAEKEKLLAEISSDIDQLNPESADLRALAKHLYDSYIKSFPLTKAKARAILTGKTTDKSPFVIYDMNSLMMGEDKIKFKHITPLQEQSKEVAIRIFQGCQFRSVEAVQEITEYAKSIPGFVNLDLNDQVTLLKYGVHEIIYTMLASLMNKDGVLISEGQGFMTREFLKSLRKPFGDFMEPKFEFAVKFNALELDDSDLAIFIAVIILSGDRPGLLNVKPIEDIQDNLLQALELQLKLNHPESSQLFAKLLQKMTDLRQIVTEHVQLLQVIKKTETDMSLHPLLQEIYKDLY

[3] = molecular target: T1, Peroxisome proliferator-activated receptor alpha; test: Ligand binding affinity was determined by displacement of a tritiated tracer by the unlabeled compound to a GST-PPAR fusion protein for Peroxisome proliferator activated receptor alpha containing residues
[4] = molecular target: T2, Peroxisome proliferator-activated receptor gamma; test: Transactivation potency was measured by luciferase activity in Caco- 2/TC7 cells transiently co-transfected for the fusion-protein Gal4-PPAR gamma; format: functional, cell-based

Structure (SMILES) | EC50 [1] [nM] | Ki [2] [nM] | Ki [3] [nM] | EC50 [4] [nM]
O=C(Nc1ccc(Oc2ncccn2)cc1C(=O)O)c1ccc(Cl)cc1Cl | > 100000 | 100 | > 100000 | 1300
O=C(Nc1ccc(Oc2ccc([N+](=O)[O-])cn2)cc1C(=O)O)c1ccc(Cl)cc1Cl | > 100000 | 180 | > 100000 | 400
O=C(Nc1ccc(-c2ccsc2)cc1C(=O)O)c1ccc(Cl)cc1Cl | 12000 | 900 | 28000 | 700
CCOc1cccc(-c2ccc(NC(=O)c3ccc(Cl)cc3Cl)c(C(=O)O)c2)c1 | > 100000 | 1200 | > 100000 | 300
Cc1ccc(NC(=O)c2ccc(Cl)cc2Cl)c(C(=O)O)c1 | 9500 | 2200 | 30000 | 1600
O=C(Nc1ccc(-c2ccco2)cc1C(=O)O)c1ccc(Cl)cc1Cl | 10000 | 500 | 22000 | 1000
O=C(Nc1ccc(-c2cccc3cccnc23)cc1C(=O)O)c1ccc(Cl)cc1Cl | > 100000 | 700 | > 100000 | 300
O=C(Nc1ccc(Oc2cncc(Cl)n2)cc1C(=O)O)c1ccc(Cl)cc1Cl | > 100000 | 160 | 21000 | 450
O=C(Nc1ccc(OCCc2cccs2)cc1C(=O)O)c1ccc(Cl)cc1Cl | > 100000 | 1000 | > 100000 | 700
CSCCOc1ccc(NC(=O)c2ccc(Cl)cc2Cl)c(C(=O)O)c1 | 2500 | 1600 | 19000 | 600
CCOc1ccc(COc2ccc(NC(=O)c3ccc(Cl)cc3Cl)c(C(=O)O)c2)cc1 | > 100000 | 3600 | > 100000 | 700
O=C(Nc1ccc(OCc2cccs2)cc1C(=O)O)c1ccc(Cl)cc1Cl | 5000 | 400 | 25000 | 300
O=C(O)c1cccc(-c2ccc(NC(=O)c3ccc(Cl)cc3Cl)c(C(=O)O)c2)c1 | > 100000 | 1400 | 67000 | > 100000
O=C(Nc1ccc(Oc2ncccc2[N+](=O)[O-])cc1C(=O)O)c1ccc(Cl)cc1Cl | > 100000 | 170 | > 100000 | 400
O=C(Nc1ccc(OCCc2ccsc2)cc1C(=O)O)c1ccc(Cl)cc1Cl | 3800 | 600 | 20000 | 800
O=C(Nc1ccc(OCCc2ccccn2)cc1C(=O)O)c1ccc(Cl)cc1Cl |  | 1500 | > 100000 | 3200
